Assay results: patent US12084472B2 (Ardelyx, Inc., priority 2015, dated 2024)

Biological target: T1, human TGR5 (Homo sapiens, UniProt Q8TDU6)
T1 construct: expressed in transfected cells; host or cells: HEK293
T1 sequence (Q8TDU6 1-330): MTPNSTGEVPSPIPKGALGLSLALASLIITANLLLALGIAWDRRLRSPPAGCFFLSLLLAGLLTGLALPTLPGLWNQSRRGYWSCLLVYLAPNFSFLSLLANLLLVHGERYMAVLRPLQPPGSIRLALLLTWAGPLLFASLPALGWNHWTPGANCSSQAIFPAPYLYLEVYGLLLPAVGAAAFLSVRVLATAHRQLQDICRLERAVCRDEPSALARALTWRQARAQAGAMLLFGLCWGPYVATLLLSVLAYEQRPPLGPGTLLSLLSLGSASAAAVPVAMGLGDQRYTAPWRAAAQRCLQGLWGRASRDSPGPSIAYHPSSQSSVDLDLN
Assay: Cell-based TGR5 assay (cAMP generation, HTRF)
Conditions: HEK293 cells stably transfected with human TGR5; cAMP by HTRF; 30 minutes at 37° C.; read-out: pEC50 Human TGR5 (converted)
Outline: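 First, compounds in 3-fold serial dilution were placed in HBSS with 10 mM HEPES pH 7.4 and 0.5 mM IBMX. Next, human TGR5-expressing HEK293 cells were added and incubated 30 min at 37° C. Finally, cAMP was detected by HTRF and pEC50 derived by logistic fitting.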

EC50 [nM]	Structure (SMILES)
< 100	O=C([C@@H](O)[C@@H](O)[C@H](O)[C@@H](O)CO)N(CCCCO)CCCCCSc1ccc(Cl)c(CNC2(c3cnccc3-c3ccccc3OC3CC3)CC2)c1 [Compound I-600, (2S,3S,4R,5S)-N-[5-({4-chloro-3-[({1-[4-(2-cyclopropoxyphenyl)pyridin-3-yl]cyclopropyl}amino)methyl]phenyl}sulfanyl)pentyl]-2,3,4,5,6-pentahydroxy-N-(4-hydroxybutyl)hexanamide]
< 100	O=C([C@@H](O)[C@@H](O)[C@H](O)[C@@H](O)CO)N(CCCCCO)CCCCCSc1ccc(Cl)c(CNC2(c3cnccc3-c3ccccc3OC3CC3)CC2)c1 [Compound I-601, (2S,3S,4R,5S)-N-[5-({4-chloro-3-[({1-[4-(2-cyclopropoxyphenyl)pyridin-3-yl]cyclopropyl}amino)methyl]phenyl}sulfanyl)pentyl]-2,3,4,5,6-pentahydroxy-N-(5-hydroxypentyl)hexanamide]
126 to 1000	CC(=O)NCCCCN(CCCSc1ccc(Cl)c(CNC2(c3cnccc3-c3ccccc3OC3CC3)CC2)c1)C(=O)[C@@H](O)[C@@H](O)[C@H](O)[C@@H](O)CO [Compound I-602, (2S,3S,4R,5S)-N-[3-({4-chloro-3-[({1-[4-(2-cyclopropoxyphenyl)pyridin-3-yl]cyclopropyl}amino)methyl]phenyl}sulfanyl)propyl]-N-(4-acetamidobutyl)-2,3,4,5,6-pentahydroxyhexanamide]
< 100	CS(=O)(=O)CCN(CCCCCSc1ccc(Cl)c(COC2(c3cnccc3-c3ccccc3OC3CC3)CC2)c1)C(=O)[C@@H](O)[C@@H](O)[C@H](O)[C@@H](O)CO [Compound I-603, (2S,3S,4R,5S)-N-(5-{[4-chloro-3-({1-[4-(2-cyclopropoxyphenyl)pyridin-3-yl]cyclopropoxy}methyl)phenyl]sulfanyl}pentyl)-2,3,4,5,6-pentahydroxy-N-(2-methanesulfonylethyl)hexanamide]
< 100	CCS(=O)(=O)CCN(CCCCCSc1ccc(Cl)c(COC2(c3cnccc3-c3ccccc3OC3CC3)CC2)c1)C(=O)[C@@H](O)[C@@H](O)[C@H](O)[C@@H](O)CO [Compound I-604, (2S,3S,4R,5S)-N-(5-{[4-chloro-3-({1-[4-(2-cyclopropoxyphenyl)pyridin-3-yl]cyclopropoxy}methyl)phenyl]sulfanyl}pentyl)-N-[2-(ethanesulfonyl)ethyl]-2,3,4,5,6-pentahydroxyhexanamide]
< 100	O=C([C@@H](O)[C@@H](O)[C@H](O)[C@@H](O)CO)N(CCCCO)CCCCCSc1ccc(Cl)c(COC2(c3cnccc3-c3ccccc3OC3CC3)CC2)c1 [Compound I-605, (2S,3S,4R,5S)-N-(5-{[4-chloro-3-({1-[4-(2-cyclopropoxyphenyl)pyridin-3-yl]cyclopropoxy}methyl)phenyl]sulfanyl}pentyl)-2,3,4,5,6-pentahydroxy-N-(4-hydroxybutyl)hexanamide]
< 100	O=C([C@@H](O)[C@@H](O)[C@H](O)[C@@H](O)CO)N(CCCCCO)CCCCCSc1ccc(Cl)c(COC2(c3cnccc3-c3ccccc3OC3CC3)CC2)c1 [Compound I-606, (2S,3S,4R,5S)-N-(5-{[4-chloro-3-({1-[4-(2-cyclopropoxyphenyl)pyridin-3-yl]cyclopropoxy}methyl)phenyl]sulfanyl}pentyl)-2,3,4,5,6-pentahydroxy-N-(5-hydroxypentyl)hexanamide]
< 100	O=C(NCCCCC[S+]([O-])c1ccc(Cl)c(COC2(c3cnccc3-c3ccccc3OC3CC3)CC2)c1)[C@@H](O)[C@@H](O)[C@H](O)[C@@H](O)CO (stereo partly drawn) [Compound I-607, (2S,3S,4R,5S)-N-{5-[4-chloro-3-({1-[4-(2-cyclopropoxyphenyl)pyridin-3-yl]cyclopropoxy}methyl)benzenesulfinyl]pentyl}-2,3,4,5,6-pentahydroxyhexanamide]
< 100	O=C(NCCCCCS(=O)(=O)c1ccc(Cl)c(COC2(c3cnccc3-c3ccccc3OC3CC3)CC2)c1)[C@@H](O)[C@@H](O)[C@H](O)[C@@H](O)CO [Compound I-608, (2S,3S,4R,5S)-N-{5-[4-chloro-3-({1-[4-(2-cyclopropoxyphenyl)pyridin-3-yl]cyclopropoxy}methyl)benzenesulfonyl]pentyl}-2,3,4,5,6-pentahydroxyhexanamide]
< 100	NC(=O)CN(CCCCCSc1ccc(Cl)c(COC2(c3cnccc3-c3ccccc3OC3CC3)CC2)c1)C(=O)[C@@H](O)[C@@H](O)[C@H](O)[C@@H](O)CO [Compound I-609, (2S,3S,4R,5S)-N-(carbamoylmethyl)-N-(5-{[4-chloro-3-({1-[4-(2-cyclopropoxyphenyl)pyridin-3-yl]cyclopropoxy}methyl)phenyl]sulfanyl}pentyl)-2,3,4,5,6-pentahydroxyhexanamide]
< 100	NC(=O)CN(CCCCCSc1ccc(Cl)c(CNC2(c3cnccc3-c3ccccc3OC3CC3)CC2)c1)C(=O)[C@@H](O)[C@@H](O)[C@H](O)[C@@H](O)CO [Compound I-610, (2S,3S,4R,5S)-N-(carbamoylmethyl)-N-[5-({4-chloro-3-[({1-[4-(2-cyclopropoxyphenyl)pyridin-3-yl]cyclopropyl}amino)methyl]phenyl}sulfanyl)pentyl]-2,3,4,5,6-pentahydroxyhexanamide]
< 100	O=C(NCCCCCSc1ccc(Cl)c(COC2(c3cnccc3-c3ccccc3OC3CC3)CC2)c1)[C@@H](O)[C@@H](O)[C@H](O)[C@@H](O)CO [Compound I-611, (2S,3S,4R,5S)-N-(5-{[4-chloro-3-({1-[4-(2-cyclopropoxyphenyl)pyridin-3-yl]cyclopropoxy}methyl)phenyl]sulfanyl}pentyl)-2,3,4,5,6-pentahydroxyhexanamide]
126 to 1000	O=C(O)CN(CCN(CC(=O)O)CC(=O)NCCOCCSc1ccc(Cl)c(COC2(c3cnccc3-c3ccccc3OC3CC3)CC2)c1)CC(=O)NCCOCCSc1ccc(Cl)c(COC2(c3cnccc3-c3ccccc3OC3CC3)CC2)c1 [Compound I-612, 2-({2-[(carboxymethyl)({[2-(2-{[4-chloro-3-({1-[4-(2-cyclopropoxyphenyl)pyridin-3-yl]cyclopropoxy}methyl)phenyl]sulfanyl}ethoxy)ethyl]carbamoyl}methyl)amino]ethyl}({[2-(2-{[4-chloro-3-({1-[4-(2-cyclopropoxyphenyl)pyridin-3-yl]cyclopropoxy}methyl)phenyl]sulfanyl}ethoxy)ethyl]carbamoyl}methyl)amino)acetic acid]
< 100	CS(=O)(=O)CCN(CCCCSc1ccc(Cl)c(COC2(c3cnccc3-c3ccccc3OC3CC3)CC2)c1)C[C@H](O)[C@@H](O)[C@H](O)[C@H](O)CO [Compound I-613, (2R,3R,4R,5S)-6-[(4-{[4-chloro-3-({1-[4-(2-cyclopropoxyphenyl)pyridin-3-yl]cyclopropoxy}methyl)phenyl]sulfanyl}butyl)(2-methanesulfonylethyl)amino]hexane-1,2,3,4,5-pentol]
126 to 1000	Cc1ccc(SCCCN(CCS(C)(=O)=O)C[C@H](O)[C@@H](O)[C@H](O)[C@H](O)CO)cc1COC1(c2cnccc2-c2ccccc2OC2CC2)CC1 [Compound I-614, (2R,3R,4R,5S)-6-[(3-{[3-({1-[4-(2-cyclopropoxyphenyl)pyridin-3-yl]cyclopropoxy}methyl)-4-methylphenyl]sulfanyl}propyl)(2-methanesulfonylethyl)amino]hexane-1,2,3,4,5-pentol]
< 100	Cc1ccc(SCCCCN(CCS(C)(=O)=O)C[C@H](O)[C@@H](O)[C@H](O)[C@H](O)CO)cc1COC1(c2cnccc2-c2ccccc2OC2CC2)CC1 [Compound I-615, (2R,3R,4R,5S)-6-[(4-{[3-({1-[4-(2-cyclopropoxyphenyl)pyridin-3-yl]cyclopropoxy}methyl)-4-methylphenyl]sulfanyl}butyl)(2-methanesulfonylethyl)amino]hexane-1,2,3,4,5-pentol]
< 100	CSc1ccc(Cl)c(COC2(c3cnccc3-c3ccccc3OC3CC3)CC2)c1 [Compound I-617, 3-(1-{[2-chloro-5-(methylsulfanyl)phenyl]methoxy}cyclopropyl)-4-(2-cyclopropoxyphenyl) pyridine]
< 100	CSc1cc(CNC2(c3cnccc3-c3ccccc3OC3CC3)CC2)c(C)cn1 [Compound I-619, [4-(2-cyclopropoxyphenyl)pyridin-3-yl]-N-{[5-methyl-2-(methylsulfanyl)pyridin-4-yl]methyl}cyclopropan-1-amine]
1260 to 10000	CC(C)c1ccc(SCCCC(=O)N(C)C[C@H](O)[C@@H](O)[C@H](O)[C@H](O)CO)cc1COC1(c2cnccc2-c2ccccc2OC2CC2)CC1 [Compound I-620, 4-{[3-({1-[4-(2-cyclopropoxyphenyl)pyridin-3-yl]cyclopropoxy}methyl)-4-(propan-2-yl)phenyl]sulfanyl}-N-methyl-N-[(2S,3R,4R,5R)-2,3,4,5,6-pentahydroxyhexyl]butanamide]
< 100	O=C(NCCCCSc1ccc(Cl)c(COC2(c3cnccc3-c3ccccc3OC3CC3)CC2)c1)NC[C@H](O)[C@@H](O)[C@H](O)[C@H](O)CO [Compound I-621, 1-(4-{[4-chloro-3-({1-[4-(2-cyclopropoxyphenyl)pyridin-3-yl]cyclopropoxy}methyl)phenyl]sulfanyl}butyl)-3-[(2S,3R,4R,5R)-2,3,4,5,6-pentahydroxyhexyl]urea]
